What follows are compounds tested against T1, rat MCH1 receptor (Rattus norvegicus, UniProt P97639) (assay: Radioligand binding assay at cloned rat MCH1 receptor ([3H]Compound A)). Settings: cloned rat MCH1, Peakr293 cell membranes, 0.08 nM [3H]Compound A, 25° C., 90 minutes; read-out: Ki(MCH-1).
T1 construct: operatively linked to DNA encoding the rat MCH1 receptor so as to permit expression thereof; expressed in transfected cells; host or cells: Human embryonic kidney Peak rapid 293 (Peakr293) cells, transient calcium phosphate transfection, membranes
T1 sequence (P97639 whole entry): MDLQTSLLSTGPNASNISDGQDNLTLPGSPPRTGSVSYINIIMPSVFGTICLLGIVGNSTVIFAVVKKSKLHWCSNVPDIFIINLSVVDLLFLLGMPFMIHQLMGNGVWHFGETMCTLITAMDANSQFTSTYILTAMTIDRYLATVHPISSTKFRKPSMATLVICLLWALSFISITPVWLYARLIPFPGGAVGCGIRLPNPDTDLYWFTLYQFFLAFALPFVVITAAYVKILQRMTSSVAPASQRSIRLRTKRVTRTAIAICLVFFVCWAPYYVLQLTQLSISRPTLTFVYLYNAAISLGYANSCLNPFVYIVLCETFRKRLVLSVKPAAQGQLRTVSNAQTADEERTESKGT

Structure (SMILES)	Ki [nM]
CCCC(=O)Nc1cccc(C2CCN(CCCNC(=O)C3(c4ccc(Cl)cc4)CCC3)CC2)c1 [Example 106, N-(3-{4-[3-(BUTYRYLAMINO)PHENYL]-1-PIPERIDINYL}PROPYL)-1-(4-CHLOROPHENYL) CYCLOBUTANECARBOXAMIDE]	19
CCCC(=O)Nc1cc(C2CCN(CCCNC(=O)C3(c4ccc(F)cc4)CCCC3)CC2)ccc1F [Example 107]	101
CCCC(=O)Nc1cc(C2CCN(CCCNC(=O)C(C)(C)c3ccc(Cl)cc3)CC2)ccc1F [Example 110]	50.4
CC(C(=O)NCCCN1CCC(c2cccc(NC(=O)C3CC3)c2)CC1)c1ccc(Cl)cc1 (stereo not drawn) [Example 116, N-{3-[1-(3-{[2-(4-CHLOROPHENYL)PROPANOYL]AMINO}PROPYL)-4-PIPERIDINYL] PHENYL}CYCLOPROPANECARBOXAMIDE]	18.9
O=C(Nc1cccc(C2CCN(CCCNC(=O)C3(c4ccc(Cl)cc4Cl)CC3)CC2)c1)C1CC1 [Example 117, N-[3-(4-{3-[(CYCLOPROPYLCARBONYL)AMINO]PHENYL}-1-PIPERIDINYL) PROPYL]-1-(2,4-DICHLOROPHENYL)CYCLOPROPANECARBOXAMIDE]	17.9
O=C(Nc1cccc(C2CCN(CCCNC(=O)C3(c4ccc(Cl)cc4)CC3)CC2)c1)C1CC1 [Example 118]	13.9
O=C(Nc1cccc(C2CCN(CCCNC(=O)C3(c4ccc(F)cc4Cl)CCCC3)CC2)c1)C1CC1 [Example 119, 1-(2-CHLORO-4-FLUOROPHENYL)-N-[3-(4-{3-[(CYCLOPROPYLCARBONYL)AMINO] PHENYL}-1-PIPERIDINYL)PROPYL]CYCLOPENTANECARBOXAMIDE]	18.6
O=C(Nc1cccc(C2CCN(CCCNC(=O)C3(c4ccc(F)cc4)CCCC3)CC2)c1)C1CC1 [Example 121, N-[3-(4-{3-[(CYCLOPROPYLCARBONYL)AMINO]PHENYL}-1-PIPERIDINYL) PROPYL]-1-(4-FLUOROPHENYL)CYCLOPENTANECARBOXAMIDE]	10.2

Now those with a lower Ki, led by results:

Ki [nM]	Structure (SMILES)
2.8	CC(=O)Nc1cccc(C2CCN(CCCNC(=O)C(c3ccccc3)(c3ccccc3)c3ccccc3)CC2)c1 [Example 105, N-(3-{4-[3-(ACETYLAMINO)PHENYL]-1-PIPERIDINYL}PROPYL)-2,2,2-TRIPHENYL ACETAMIDE]
1.9	CCCC(=O)Nc1cc(C2CCN(CCCNC(=O)C(c3ccc(Cl)cc3)c3ccc(Cl)cc3)CC2)ccc1F [Example 108]
4.7	CCCC(=O)Nc1cc(C2CCN(CCCNC(=O)C(c3ccc(C)cc3)c3ccc(C)cc3)CC2)ccc1F [Example 109]
1.2	Cc1ccc(C(C(=O)NCCCN2CCC(c3cccc(NC(=O)C4CC4)c3)CC2)c2ccc(C)cc2)cc1 [Example 111, N-{3-[1-(3-{[2,2-BIS(4-METHYLPHENYL)ACETYL]AMINO}PROPYL)-4-PIPERIDINYL] PHENYL}CYCLOPROPANECARBOXAMIDE]
3.2	O=C(Nc1cccc(C2CCN(CCCNC(=O)C3(c4ccc(Cl)cc4)CCCC3)CC2)c1)C1CC1 [Example 112]
0.8	O=C(Nc1cccc(C2CCN(CCCNC(=O)C(c3ccc(Cl)cc3)c3ccc(Cl)cc3)CC2)c1)C1CC1 [Example 113, N-{3-[1-(3-{[2,2-BIS(4-CHLOROPHENYL)ACETYL]AMINO}PROPYL)-4-PIPERIDINYL] PHENYL}CYCLOPROPANECARBOXAMIDE]
4	O=C(Nc1cccc(C2CCN(CCCNC(=O)C(c3ccccc3)(c3ccccc3)c3ccccc3)CC2)c1)C1CC1 [Example 114]
6.9	CC(C)(C(=O)NCCCN1CCC(c2cccc(NC(=O)C3CC3)c2)CC1)c1ccc(Cl)cc1 [Example 115]
0.4	O=C(Nc1cccc(C2CCN(CCCNC(=O)C(c3ccc(F)cc3)c3ccc(F)cc3)CC2)c1)C1CC1 [Example 120, N-{3-[1-(3-{[2,2-BIS(4-FLUOROPHENYL)ACETYL]AMINO}PROPYL)-4-PIPERIDINYL] PHENYL}CYCLOPROPANECARBOXAMIDE]
4.8	CCC(C(=O)NCCCN1CCC(c2cccc(NC(=O)C3CC3)c2)CC1)(c1ccccc1)c1ccccc1 [Example 122, N-[3-(1-{3-[(2,2-DIPHENYLBUTANOYL)AMINO]PROPYL}-4-PIPERIDINYL)PHENYL] CYCLOPROPANECARBOXAMIDE]
